{"source": "patent US20100058650A1", "about": "“HYDROXYMETHYLFURFURAL ETHERS FROM SUGARS OR HMF AND MIXED ALCOHOLS” (FURANIX TECHNOLOGIES B.V., priority 2007, published 2010)", "test": "Fuel solubility: miscibility of blends with commercial diesel", "assay_type": "physicochemical", "from_the_text": "Fuel solubility is a primary concern for diesel fuel applications. Not all highly polar oxygenates have good solubility in the current commercial diesel fuels."}
{"compound": "CCOCc1ccc(C=O)o1", "note": "[EMF, 5-(ethoxymethyl)furfural]", "values": [{"measurement": "Miscibility of blend with commercial diesel", "setting": "5 vol % blend with commercial diesel", "value": "completely miscible"}, {"measurement": "Miscibility of blend with commercial diesel", "setting": "25 vol % blend with commercial diesel", "value": "phase separation occurs"}, {"measurement": "Miscibility of blend with commercial diesel", "setting": "40 vol % blend with commercial diesel", "value": "phase separation occurs"}]}
